Measurements published in paper PMC10574351, “First-Row Transition Metal Complexes Incorporating the 2-(2′-pyridyl)quinoxaline Ligand (pqx), as Potent Inflammatory Mediators: Cytotoxic Properties and Biological Activities against the Platelet-Activating Factor (PAF) and Thrombin” (Molecules, 2023).

Experiments:
[1] = tested on: HEK293T (human embryonic kidney cells); assay: MTT cell viability assay, HEK293T; type: cell-based; conditions: for IC50: 48 h exposure, mean ± SD; for cytotoxic effect in HEK293T: 48 h
Description: In this report, cell viability tests were conducted in HEK293T and HeLa cancer cells by means of the colorimetric 3-(4,5-dimethylthiazol-2-yl)-2,5-diphenyl tetrazolium bromide (MTT) assay after exposure for 48 h. A HeLa cancer cell line was selected since it is widely used in cytotoxicity studies. For all complexes, a 10 mM stock solution in DMSO (H2O for cisplatin) was prepared and diluted appropriately to reach the final concentration reported in the Materials and Methods. The non-cancerous HEK293T cell line was used for comparison. The IC50 values of the first-row metal complexes, the pqx ligand and cisplatin, presented herein were calculated using a dose-response model, which was obtained from sigmoidal fitting of dose-response curves.
The HEK293T cell line (immortalized human embryonic kidney cells) was obtained from the Biomedical Research Foundation Academy of Athens (BRFAA), Athens, Greece and the HeLa cell line (cervical cancer cells) was obtained from the National Centre For Scientific Research Demokritos (NCSR Demokritos), Athens, Greece.
Pqx metal complexes were diluted in stock solutions of 10 mM in dimethyl sulfoxide (DMSO). A similar concentration of cisplatin dissolved in H2O was used. HEK293T and HeLa cells were cultured in Dulbecco’s modified Eagle’s medium (DMEM) with high glucose (Biosera, Nuaille, France) supplemented with 10% fetal bovine serum at 37 °C and 5% CO2. Cells were seeded in sterile tissue culture 96-well plates (SPL Life Science, Pochon, Republic of Korea) at a density of 3000 cells per well. After 24 h, the medium was removed and replaced with fresh media containing various concentrations (0.01 μΜ, 0.1 μΜ, 1 μΜ, 10 μΜ, 25 μΜ, 40 μΜ, 55 μΜ, 70 μΜ, 85 μΜ and 100 μΜ) of the compounds to be tested and was further incubated for 48 h at 37 °C. Dimethyl sulfoxide (DMSO) was used as a vehicle at ≤1%. To measure cytotoxicity, a culture medium containing the compounds (or DMSO) was removed, and 100 μL of 0.5 mg/mL MTT reagent (Applichem, Darmstadt, Germany) diluted in DMEM was added to the cells for 3 h at 37 °C. After 3 h incubation in identical conditions, MTT was removed and 200 μL of DMSO was added. Absorbance values of formazan were measured at 540 nm using a BioTek Synergy H1 microplate reader (Agilent, Santa Clara, CA, USA). All compounds were tested in triplicate. The results were statistically analyzed using the nonlinear regression by GraphPad PRISM (Version 9).

[2] = tested on: thrombin-induced aggregation in washed rabbit platelets (WRPs); assay: Inhibition of thrombin-induced aggregation in washed rabbit platelets; type: cell-based; conditions: for IC50: washed rabbit platelets, mean ± SD, read-out: IC50 (μM) towards Thrombin in WRPs
Description: The biological experiments of PAF-induced platelet aggregation as well as the evaluation of the inhibitory effect of its synthetic compounds were performed according to thoroughly described protocols. The inhibitory effect of the starting materials (pqx = 2-(2′-pyridyl)quinoxaline, CrCl3 × 3H2O, MnCl2 × 4H2O, FeCl2 × 4H2O, CoCl2 × 6H2O, NiCl2 × 6H2O, CuCl2 × 2H2O, ZnCl2) and of the coordination compounds 1–7, towards PAF and thrombin related biological activities (aggregation experiments) in washed rabbit platelets (WRPs) was carried out according to previously described protocols. Briefly, in order to obtain the washed rabbit platelets (WRPs), platelet-rich plasma was washed on Ficoll–Paque cushions and adjusted to […] platelets/mL of Tyrode’s buffer, pH 7.2. The dilution of PAF was prepared using pyrogen-free 0.15 M NaCl containing 2.5 mg/mL of crystallized bovine serum albumin, required for dispersion of PAF. The compounds under investigation were firstly dissolved in the appropriate solvent that is: DMSO for pqx (0.010 M), H2O for CrCl3 × 3H2O (0.016 M), H2O for MnCl2 × 4H2O (0.004 M), DMSO-EtOH (4/1, v/v)) for FeCl2 × 4H2O (0.014 M), H2O for CoCl2 × 6H2O (0.010 M), H2O for NiCl2 × 6H2O (0.010 M), H2O for CuCl2 × 2H2O (0.008 M), H2O for ZnCl2 (0.013 M), DMSO for 1 (0.017 M), DMSO for 2 (0.010 M0, DMSO for 3 (0.004 M), DMSO for 4 (0.002 M), DMSO for 5 (0.003 M), DMSO-EtOH-H2O (25/1/1, v/v)) for 6 (0.006 M), DMSO for 7 (0.002 M) and aliquots of these solutions were then added in solutions (2.5 mg BSA/mL) of saline.
The experiment on the inhibitory effect of each compound of interest against the washed rabbit platelets (WRPs) aggregation was carried out as per the already described method. The platelets were from male New Zealand white rabbits (about 20), individually housed in stainless steel cages in an air-conditioned room (19 ± 1 °C, 55 ± 5% humidity on a 12/12 h artificial light/dark cycle). Blood samples were drawn from the main ear artery. Microliters of PAF in a final concentration of about 10^–10 M were added to the cuvette of the aggregometer, and the height of the platelet aggregation was monitored. The platelet aggregation induced by PAF, or thrombin was measured before (considered as 0% inhibition) and after the addition of various concentrations of the examined sample, creating a linear curve of percentage inhibition (ranging from 0 to 100%) versus different concentrations of the sample. From this curve, the concentration of the sample that inhibited 50% PAF-induced aggregation was calculated, and this value was defined as IC50 (Inhibitory concentration for 50% Inhibition). Dithiothreitol-insensitive PAF choline phosphotransferase, lyso-PAF:acetyl-CoA acetyltransferase and PAF-acetylhydrolase activity assays were performed on the homogenates of rabbit leukocytes while the activity of lipoprotein-associated phospholipase A2 was assessed on plasma as previously described. The experiments were performed in a model 400 vs. aggregometer of Chrono-Log (Havertown, PA, USA) coupled to a Chrono-Log recorder at 37 °C with constant stirring at 1200 rpm. The separation of platelets was performed with centrifugations in a 3L-R Heraeus Labofuge (Hvanau, Germany), a 400R Heraeus Labofuge and an RC-5B Sorvall (Newtown, CT, USA) refrigerated super speed centrifuge. Bovine serum albumin (BSA), PAF and analytical solvents for the biological assays were purchased from Sigma. Standard active thrombin was purchased from Sigma, St. Lewis, MO, USA. The measurements were performed in duplicates for each sample concentration in three different WRP preparations, in order to ensure reproducibility. All experiments were also followed by appropriate control tests of the solvent used (saline solution of BSA, DMSO aliquots in a saline solution of BSA-2.5 mg BSA/mL saline- or just in saline), in WRPs. […]

Row | Molecule | IC50 [1] | IC50 [2] | cytotoxic effect in HEK293T [1] | fold decrease of thrombin IC50 relative to the metal precursor ([2]; complex versus its metal precursor)
1 | CS(C)=O.[Cl][Cu][Cl].c1ccc(-c2cnc3ccccc3n2)nc1 [Complex 3, [Cu(pqx)Cl2(DMSO)]] | 2.1 ± 0.52 µM | 3.1 ± 0.4 µM | – | –
2 | [Cl][Zn][Cl].c1ccc(-c2cnc3ccccc3n2)nc1 [Complex 4, [Zn(pqx)Cl2]] | 94.9 ± 23.2 µM | 3.5 ± 0.3 µM | negligible cytotoxic effects | ~ 12 fold
3 | [Co(pqx)Cl2(DMF)] [Complex 2] | 67 ± 12.6 µM | 8.9 ± 1.3 µM | – | –
4 | [Fe(pqx)Cl2]2 [Complex 6] | 65.8 ± 13.2 µM | 0.46 ± 0.03 µM | – | –
5 | [Mn(pqx)(H2O)2Cl2]2 [Complex 5] | 28.8 ± 6.16 µM | 14 ± 2.1 µM | – | –
6 | [Ni(pqx)Cl2]2 [Complex 7] | 25.5 ± 8.61 µM | 5.6 ± 0.34 µM | – | –
7 | mer-[Cr(pqx)Cl3(H2O)] [Complex 1] | 99 ± 6.16 µM | 54.6 ± 10.4 µM | negligible cytotoxic effects | –
